Data on 15 compounds can be found in patent US20230286983A1 (4E Therapeutics, Inc., priority 2020, published 2023).

The target in series [1] is MNK1 (Homo sapiens, UniProt Q9BUB5). As to the kind of experiment: MNK1 substrate phosphorylation assay. To be noted: recombinant human kinase. The format is biochemical.
The target in series [2] is MNK2 (Homo sapiens, UniProt Q9HBH9). As to the kind of experiment: MNK2 substrate phosphorylation assay. The format is biochemical. To be noted: recombinant human kinase.
The subject of series [3] is eIF4E phosphorylation at Serine 209 in the human embryonic kidney (HEK) 293 cell line. As to the kind of experiment: eIF4E phosphorylation in HEK 293 cells (fluorescent plate reader). The format is cell-based. Conditions: eIF4E phosphorylation at Serine 209, 2 hours exposure. As to the method: The ability of MNK inhibitors described herein to inhibit eIF4E phosphorylation at Serine 209 in the human embryonic kidney (HEK) 293 cell line was tested by exposing the cells to compound for 2 hours and then measuring eIF4E phosphorylation with a phosphorylation-specific antibody in a fluorescent plate reader. These experiments were done with HEK-293 cells plated on 96 well plates. Following treatment, cells were fixed with ice cold methanol for 10 min and then washed in 1× phosphate buffered saline (PBS) and the permeabilized with 0.02% Triton X-100 in 10% normal goat serum made up in PBS. Primary antibody was applied overnight at a concentration dilution of 1:2000 (p-eIF4E antibody from Cell Signaling ab76256). Following washing, cells were then exposed to secondary antibody conjugated to alexa-fluor 488 and then visualized on a Syngergy HTX plate reader. Fluorescence for p-eIF4E was measured and normalized to total DAPI fluorescence to determine the percentage of eIF4E phosphorylation in each well. Data were plotted in Graphpad Prism V8 to determine concentration-response effects and calculate IC50 values.

Series [4] relates to P-gp (human MDR1, ABCB1). The experiment in a line: MDCK-MDR1 permeability (blood brain barrier permeability). To be noted: dog. The format is in vitro ADME, Canine.

Sequence of MNK1 (Q9BUB5 whole entry): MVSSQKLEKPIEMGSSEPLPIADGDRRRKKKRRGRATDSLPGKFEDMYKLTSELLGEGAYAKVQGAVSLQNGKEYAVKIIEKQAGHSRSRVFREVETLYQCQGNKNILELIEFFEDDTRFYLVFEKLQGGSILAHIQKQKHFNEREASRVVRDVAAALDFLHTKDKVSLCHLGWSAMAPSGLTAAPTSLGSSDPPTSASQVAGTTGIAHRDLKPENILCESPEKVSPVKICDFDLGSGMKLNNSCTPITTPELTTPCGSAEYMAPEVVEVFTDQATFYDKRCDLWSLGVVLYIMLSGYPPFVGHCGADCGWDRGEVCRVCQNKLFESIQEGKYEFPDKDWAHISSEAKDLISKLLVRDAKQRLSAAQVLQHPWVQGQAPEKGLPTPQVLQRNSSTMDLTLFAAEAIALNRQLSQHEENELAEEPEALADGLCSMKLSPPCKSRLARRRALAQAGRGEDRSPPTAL
Sequence of MNK2 (Q9HBH9 whole entry): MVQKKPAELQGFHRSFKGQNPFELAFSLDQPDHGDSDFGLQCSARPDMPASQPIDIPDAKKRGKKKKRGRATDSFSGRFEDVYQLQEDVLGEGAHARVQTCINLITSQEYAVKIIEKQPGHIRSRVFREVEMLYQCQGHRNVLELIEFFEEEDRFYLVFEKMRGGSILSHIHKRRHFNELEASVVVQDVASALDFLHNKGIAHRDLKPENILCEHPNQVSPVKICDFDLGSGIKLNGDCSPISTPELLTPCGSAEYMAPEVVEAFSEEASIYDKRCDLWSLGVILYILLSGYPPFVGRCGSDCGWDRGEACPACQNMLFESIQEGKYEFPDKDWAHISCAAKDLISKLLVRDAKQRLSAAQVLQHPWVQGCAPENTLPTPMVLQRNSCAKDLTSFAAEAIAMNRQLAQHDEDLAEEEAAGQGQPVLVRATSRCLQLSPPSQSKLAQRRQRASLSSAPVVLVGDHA

One may read the IC50 as the concentration that gives 50% inhibition. With `Cc1cc(Nc2cc(NCCNS(C)(=O)=O)ncn2)c(=O)n2c1C(=O)NC21CCOCC1` [Compound 4ET-03-014], the IC50 in series [1] was found to be 107 nM; in series [2], 32.8 nM.
With `Cc1cc(Nc2cc(NC(=O)C3CC3)ncn2)c(=O)n2c1C(=O)NC2(C)C` [Compound 4ET-03-002, N-(6-((3,3,8-Trimethyl-1,5-dioxo-1,2,3,5-tetrahydroimidazo[1,5-a]pyridin-6-yl)amino)pyrimidin-4-yl)cyclopropanecarboxamide], the IC50 in series [3] (Homo sapiens, HEK293) came out at 5.3 nM; in series [1], 133 nM.
Take `Cc1cc(Nc2cc(N)ncn2)c(=O)n2c1C(=O)NC21CCCC1` [Compound 4ET-01-001, 6′-((6-Aminopyrimidin-4-yl)amino)-8′-methyl-2′H-spiro[cyclopentane-1,3′-imidazo[1,5-a]pyridine]-1′,5′-dione]: the midpoint of inhibition in series [3] (Homo sapiens, HEK293), the IC50, lay at 10.9 nM.
For the compound `Cc1cc(Nc2cc(NC(=O)C3CC3)ncn2)c(=O)n2c1C(=O)NC21Cc2ccc(Cl)cc2C1` (centres unmarked) [Compound 4ET-03-054], the IC50 in series [3] (Homo sapiens, HEK293, 2 h) turned out to be 8.6 nM; in series [1], 118 nM; in series [2], 5.7 nM.
`Cc1cc(Nc2cc(NCCO)ncn2)c(=O)n2c1C(=O)NC2(C)C` [Compound 4ET-03-004]: the IC50 in series [3] (Homo sapiens, HEK293, 2 h) was 86.6 nM; in series [1], 84.5 nM; in series [2] it was 7.7 nM.
Take `Cc1cc(Nc2cc(NC(=O)C3CC3)ncn2)c(=O)n2c1C(=O)NC21CCOc2ccc(Cl)cc21` (centres unmarked) [Compound 4ET-03-036]: the IC50 stood at 8.6 nM in series [3] (Homo sapiens, HEK293, 2 h); 118 nM in series [1]; 5.65 nM in series [2].
Turning to `Cc1cc(Nc2cc(NC(=O)C(C)C)ncn2)c(=O)n2c1C(=O)NC2(C)C` [Compound 4ET-03-001], the IC50 in series [3] (Homo sapiens, HEK293, 2 h) amounted to 47 nM; in series [1], 119 nM; in series [2], 11.9 nM.
`Cc1cc(Nc2cc(N)ncn2)c(=O)n2c1C(=O)NC21Cc2ccccc2[C@@H]1F` (single isomer, unassigned) [Compound 4ET-01-010B, 6-((6-Aminopyrimidin-4-yl)amino)-1′-fluoro-8-methyl-1′,3′-dihydro-2H-spiro[imidazo[1,5-a]pyridine-3,2′-indene]-1,5-dione]: the IC50 came out at 71.3 nM in series [3], 348 nM in series [1] and 96.6 nM in series [2].
For `Cc1cc(Nc2cc(NCCO)ncn2)c(=O)n2c1C(=O)NC21CCOCC1` [Compound 4ET-03-011], the IC50 came to 32.4 nM in series [3] (Homo sapiens, HEK293, 2 h); 203 nM in series [1]; 27.8 nM in series [2].
As usually defined, the Papp A→B is how fast a substance crosses the layer from the apical side. Higher therefore signals fast passage. As usually defined, the Papp B→A is how fast a substance crosses the layer from the basolateral side. Take `Cc1cc(Nc2cc(NCCC(=O)O)ncn2)c(=O)n2c1C(=O)NC21CCCCC1` [Compound 4ET-02-006, 3-((6-((8′-Methyl-1′,5′-dioxo-1′,5′-dihydro-2′H-spiro[cyclohexane-1,3′-imidazo[1,5-a]pyridin]-6′-yl)amino)pyrimidin-4-yl)amino)propanoic acid]: the efflux ratio at 5 μM in series [4] (MDCK-MDR1, 5 μM, read-out: Efflux ratio (ratio B-A/A-B)) worked out at 0.8. This compound also came in with a Papp A→B at 5 μM in series [4] (MDCK-MDR1, Apical to basolateral transport, 5 μM, average of two experiments) of 0.1 ×10⁻⁶ cm/s. For the same compound, the Papp B→A at 5 μM in series [4] (MDCK-MDR1, Basolateral to apical transport, 5 μM, average of two experiments) turned out to be 0.1 ×10⁻⁶ cm/s. For the same compound, the values for the IC50 in series [1] and in series [2] were 346 nM and 14.4 nM, respectively.
On to `Cc1cc(Nc2cc(NCCNS(C)(=O)=O)ncn2)c(=O)n2c1C(=O)NC2(C)C` [Compound 4ET-03-012], for which the IC50 in series [1] turned out to be 441 nM; in series [2], 273 nM.
On to `Cc1cc(Nc2cc(NCCN3CCOCC3)ncn2)c(=O)n2c1C(=O)NC21CCOCC1` [Compound 4ET-03-010], for which the IC50 in series [3] (Homo sapiens, HEK293, 2 h) was found to be 164 nM; in series [1], 382 nM; in series [2], 84.8 nM.
With `Cc1cc(Nc2cc(N3CCN(CCN(C)C)CC3)ncn2)c(=O)n2c1C(=O)NC21CCCCC1` [Compound 4ET-02-002], in series [1], the “MNK1 IC50” value is “inactive”. Also, the “MNK2 IC50” value in series [2] is “inactive”.
Consider `Cc1cc(Nc2cc(NCCN3CCOCC3)ncn2)c(=O)n2c1C(=O)NC2(C)C` [Compound 4ET-03-003], for which the IC50 in series [3] (Homo sapiens, HEK293, 2 h) is 110 nM; in series [1], 80.2 nM; in series [2], 22.6 nM.
With `Cc1cc(Nc2cc(NC(=O)C(C)C)ncn2)c(=O)n2c1C(=O)NC21CCOCC1` [Compound 4ET-03-008], the IC50 was found to be 52.6 nM in series [3] (Homo sapiens, HEK293, 2 h); 65.5 nM in series [1]; 7.4 nM in series [2].
